In ChEMBL document CHEMBL4184099, “Fragment-based discovery of a potent NAMPT inhibitor” (Bioorg Med Chem Lett, 2018):

Key:
[1] = target: T1, Nicotinamide phosphoribosyltransferase (Homo sapiens, UniProt P43490); assay: Inhibition of human full length C-terminal flag/His-tagged NAMPT (1 to 491 residues) expressed in HEK293-6E cells by TR-FRET assay
Target sequence in this assay (P43490 whole entry, the tested form may be a part): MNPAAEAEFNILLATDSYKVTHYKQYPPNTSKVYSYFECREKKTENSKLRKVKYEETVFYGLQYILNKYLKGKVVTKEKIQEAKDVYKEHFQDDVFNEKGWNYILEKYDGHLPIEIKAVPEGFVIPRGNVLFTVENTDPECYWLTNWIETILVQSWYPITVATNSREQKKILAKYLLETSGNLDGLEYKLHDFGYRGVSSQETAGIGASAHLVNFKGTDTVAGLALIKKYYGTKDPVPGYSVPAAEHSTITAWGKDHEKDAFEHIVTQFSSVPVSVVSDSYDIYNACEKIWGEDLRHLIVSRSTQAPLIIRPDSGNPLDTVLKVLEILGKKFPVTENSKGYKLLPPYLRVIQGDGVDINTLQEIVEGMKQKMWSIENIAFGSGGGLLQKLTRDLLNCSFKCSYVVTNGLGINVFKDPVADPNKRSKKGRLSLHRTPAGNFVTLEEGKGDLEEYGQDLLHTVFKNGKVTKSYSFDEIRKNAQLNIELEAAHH

[2] = target: T1, Nicotinamide phosphoribosyltransferase; assay: Inhibition of NAM binding to human full length C-terminal flag/His-tagged NAMPT (1 to 491 residues) at 400 uM by STD-NMR spectroscopic analysis relative to control
Target sequence in this assay (P43490 whole entry, looked up, the tested form may be a part): as the sequence (P43490 whole entry, the tested form may be a part) above

Row | IC50 [1] [µM] | inhibition [2] [%] | SMILES
1 | 850 | 80 | O=C(NCc1ccncc1)Nc1ccc(F)c(F)c1
2 | 8 | 80 | Cc1ccc(Cn2nnc3cc(C(N)=O)ccc32)cc1
3 | 0.08 | – | CC(C)CCNC(=O)c1ccc(NC(=O)Nc2ccc3nc[nH]c3c2)cc1
4 | 360 | 80 | CCCc1cc(=O)[nH]c(Nc2ccccc2F)n1
5 | 10 | – | O=C1OCCC/C1=C\Nc1ccccc1
6 | 90 | – | O=C(Cc1ccccc1)Nc1ccc2nc[nH]c2c1
7 | > 1000 | 80 | O=C1C2CCC2C(=O)N1CCc1ccccn1 (stereo unspecified)
